Measured values published in ChEMBL document CHEMBL5380785, “Application of Novel Degraders Employing Autophagy for Expediting Medicinal Research” (J Med Chem, 2023).
Values belong to the compound of their own block, whether it stands above or below them.

What was measured:
[1] = biological target: T1, Methionine aminopeptidase 2 (Homo sapiens, UniProt P50579); assay: Induction of MetAP2 degradation in human HEK293 cells; type: cell-based
[2] = biological target: T1, Methionine aminopeptidase 2; assay: Induction of MetAP2 degradation in human U87MG cells; type: cell-based; conditions: u87mg human egfr viii
[3] = Downregulation of extracellular oleic acid induced lipid droplets in MEF cells; type: functional, Mus musculus
Cortical neuron = assay: Induction of huntingtin polyQ mutant degradation in mouse primary cortical neuron; type: cell-based; conditions: dose 10.0 µM
[4] = biological target: T2, Sequestosome-1/Estrogen receptor beta (Homo sapiens, UniProt Q92731+Q13501); assay: Autotac activity at p62/ERbeta degradation in HEK293T cells; type: cell-based
[5] = biological target: T2, Sequestosome-1/Estrogen receptor beta; assay: Autotac activity at p62/ERbeta degradation in human ACHN cells; type: cell-based
Estrogen receptor beta [6] = biological target: T3, Estrogen receptor beta (Homo sapiens, UniProt Q92731); assay: Induction of ERbeta degradation in human MCF7 cells; type: cell-based
[7] = biological target: T2, Sequestosome-1/Estrogen receptor beta; assay: Autotac activity at p62/ERbeta degradation in human MCF7 cells; type: cell-based
Estrogen receptor beta [8] = biological target: T3, Estrogen receptor beta; assay: Induction of ERbeta degradation in human ACHN cells; type: cell-based
Estrogen receptor beta [9] = biological target: T3, Estrogen receptor beta; assay: Induction of ERbeta degradation in human HEK293T cells; type: cell-based
Androgen receptor = biological target: T4, Androgen receptor (Homo sapiens, UniProt P10275); assay: Induction of AR degradation in human LNCaP cells; type: cell-based
T4 sequence (P10275 whole entry): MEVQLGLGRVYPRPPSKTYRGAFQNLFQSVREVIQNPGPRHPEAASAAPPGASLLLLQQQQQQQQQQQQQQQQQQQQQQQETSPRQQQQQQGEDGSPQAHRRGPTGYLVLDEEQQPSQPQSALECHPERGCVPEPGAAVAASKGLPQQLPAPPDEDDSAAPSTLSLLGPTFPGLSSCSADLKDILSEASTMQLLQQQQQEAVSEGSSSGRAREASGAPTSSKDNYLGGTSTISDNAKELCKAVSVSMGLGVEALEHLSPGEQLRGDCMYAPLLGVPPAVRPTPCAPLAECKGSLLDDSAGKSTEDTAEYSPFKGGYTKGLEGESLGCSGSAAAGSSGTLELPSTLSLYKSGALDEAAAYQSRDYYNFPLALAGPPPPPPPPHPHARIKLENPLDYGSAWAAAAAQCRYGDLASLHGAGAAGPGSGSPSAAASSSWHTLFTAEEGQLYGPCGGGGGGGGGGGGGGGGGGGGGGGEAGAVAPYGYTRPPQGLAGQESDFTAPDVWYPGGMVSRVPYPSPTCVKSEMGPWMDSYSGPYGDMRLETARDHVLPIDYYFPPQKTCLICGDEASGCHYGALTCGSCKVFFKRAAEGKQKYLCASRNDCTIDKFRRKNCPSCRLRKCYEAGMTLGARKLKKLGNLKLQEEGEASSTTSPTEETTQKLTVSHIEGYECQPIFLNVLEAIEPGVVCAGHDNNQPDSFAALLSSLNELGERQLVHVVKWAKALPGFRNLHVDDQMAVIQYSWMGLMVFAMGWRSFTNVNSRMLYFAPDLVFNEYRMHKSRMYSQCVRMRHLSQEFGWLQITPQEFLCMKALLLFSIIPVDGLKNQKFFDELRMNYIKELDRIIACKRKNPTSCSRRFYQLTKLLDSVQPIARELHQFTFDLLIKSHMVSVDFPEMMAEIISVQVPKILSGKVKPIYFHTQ

[10] = biological target: Bromodomain-containing protein 4 (Homo sapiens) (UniProt O60885); assay: Induction of BRD4 degradation in human HeLa cells relative to control; type: cell-based
[11] = biological target: Bromodomain-containing protein 4 (Homo sapiens) (UniProt O60885); assay: Induction of BRD4 degradation in human MDA-MB-231 cells at 10 uM relative to control; type: cell-based
[12] = biological target: Sequestosome-1/Microtubule-associated protein tau (Homo sapiens, UniProt P10636+Q13501, P618L); assay: Autotac activity at p62/tau P301L mutant in human SH-SY5Y cells assessed as tau P301L degradation; type: cell-based
[13] = Induction of huntingtin polyQ mutant degradation in human A 172 cells; type: cell-based
[14] = biological target: T5, Nicotinamide phosphoribosyltransferase (Homo sapiens, UniProt P43490); assay: Induction of NAMPT degradation in human A2780 cells; type: cell-based
Target sequence in this assay (P43490 whole entry): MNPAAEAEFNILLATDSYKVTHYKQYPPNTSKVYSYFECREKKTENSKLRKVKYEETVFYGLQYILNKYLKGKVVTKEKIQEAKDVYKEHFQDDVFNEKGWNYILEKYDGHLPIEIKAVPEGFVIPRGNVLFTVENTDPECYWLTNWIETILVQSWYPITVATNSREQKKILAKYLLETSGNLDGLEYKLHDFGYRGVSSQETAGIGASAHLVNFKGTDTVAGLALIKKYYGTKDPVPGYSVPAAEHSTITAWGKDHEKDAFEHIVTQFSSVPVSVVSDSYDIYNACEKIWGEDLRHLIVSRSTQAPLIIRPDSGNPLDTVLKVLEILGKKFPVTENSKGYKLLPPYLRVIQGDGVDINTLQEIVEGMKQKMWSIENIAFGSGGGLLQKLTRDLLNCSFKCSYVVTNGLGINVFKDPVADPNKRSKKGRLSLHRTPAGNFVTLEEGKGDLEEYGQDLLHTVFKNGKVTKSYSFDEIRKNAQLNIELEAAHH

[15] = biological target: T5, Nicotinamide phosphoribosyltransferase; assay: Induction of NAMPT degradation in human A2780 cells at 3 uM relative to control; type: cell-based
Target sequence in this assay (P43490 whole entry, looked up): as the sequence (P43490 whole entry) above

T2 sequence (Q92731 whole entry): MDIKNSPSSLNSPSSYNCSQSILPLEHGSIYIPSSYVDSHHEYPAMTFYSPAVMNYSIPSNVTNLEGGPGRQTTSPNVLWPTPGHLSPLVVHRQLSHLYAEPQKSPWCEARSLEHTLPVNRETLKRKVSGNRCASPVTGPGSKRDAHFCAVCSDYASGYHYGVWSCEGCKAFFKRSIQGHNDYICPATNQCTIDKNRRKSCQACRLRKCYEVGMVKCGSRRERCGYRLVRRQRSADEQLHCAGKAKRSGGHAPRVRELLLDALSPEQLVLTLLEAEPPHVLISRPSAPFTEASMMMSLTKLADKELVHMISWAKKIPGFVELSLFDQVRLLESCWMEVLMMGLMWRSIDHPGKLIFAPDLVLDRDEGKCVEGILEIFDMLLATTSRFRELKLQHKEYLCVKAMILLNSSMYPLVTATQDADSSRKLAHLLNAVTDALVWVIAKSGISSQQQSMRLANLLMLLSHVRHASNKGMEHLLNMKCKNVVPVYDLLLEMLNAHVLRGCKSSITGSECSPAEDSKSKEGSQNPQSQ
T2 sequence (Q13501 whole entry): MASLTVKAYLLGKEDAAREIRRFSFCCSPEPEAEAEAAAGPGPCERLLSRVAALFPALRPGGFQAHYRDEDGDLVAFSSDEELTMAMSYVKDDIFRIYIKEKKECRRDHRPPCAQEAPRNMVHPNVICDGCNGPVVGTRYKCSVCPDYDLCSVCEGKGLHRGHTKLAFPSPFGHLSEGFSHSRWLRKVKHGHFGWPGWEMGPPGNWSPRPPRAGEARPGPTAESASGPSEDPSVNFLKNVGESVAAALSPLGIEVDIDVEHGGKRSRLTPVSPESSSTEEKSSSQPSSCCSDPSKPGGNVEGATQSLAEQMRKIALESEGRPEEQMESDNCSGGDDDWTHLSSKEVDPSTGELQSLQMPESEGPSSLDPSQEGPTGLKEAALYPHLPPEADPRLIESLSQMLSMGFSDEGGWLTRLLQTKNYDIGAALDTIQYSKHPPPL
T3 sequence (Q92731 whole entry): as the sequence (Q92731 whole entry) above
T1 sequence (P50579 whole entry): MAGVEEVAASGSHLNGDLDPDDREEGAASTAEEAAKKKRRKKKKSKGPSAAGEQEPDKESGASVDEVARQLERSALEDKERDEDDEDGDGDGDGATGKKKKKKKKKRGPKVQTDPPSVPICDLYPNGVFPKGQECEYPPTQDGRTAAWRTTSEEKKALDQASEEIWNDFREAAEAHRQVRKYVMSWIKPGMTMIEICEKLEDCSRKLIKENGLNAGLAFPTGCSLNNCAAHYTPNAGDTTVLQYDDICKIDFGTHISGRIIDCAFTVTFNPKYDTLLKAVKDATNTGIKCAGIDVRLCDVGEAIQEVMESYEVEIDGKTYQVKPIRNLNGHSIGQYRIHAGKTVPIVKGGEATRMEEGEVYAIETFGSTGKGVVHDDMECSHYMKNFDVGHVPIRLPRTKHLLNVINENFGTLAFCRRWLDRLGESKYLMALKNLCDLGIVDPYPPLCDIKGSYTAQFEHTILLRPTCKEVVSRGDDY
Chain of Sequestosome-1/Microtubule-associated protein tau (P10636 2-758 P618L limits assumed, stated change not applied): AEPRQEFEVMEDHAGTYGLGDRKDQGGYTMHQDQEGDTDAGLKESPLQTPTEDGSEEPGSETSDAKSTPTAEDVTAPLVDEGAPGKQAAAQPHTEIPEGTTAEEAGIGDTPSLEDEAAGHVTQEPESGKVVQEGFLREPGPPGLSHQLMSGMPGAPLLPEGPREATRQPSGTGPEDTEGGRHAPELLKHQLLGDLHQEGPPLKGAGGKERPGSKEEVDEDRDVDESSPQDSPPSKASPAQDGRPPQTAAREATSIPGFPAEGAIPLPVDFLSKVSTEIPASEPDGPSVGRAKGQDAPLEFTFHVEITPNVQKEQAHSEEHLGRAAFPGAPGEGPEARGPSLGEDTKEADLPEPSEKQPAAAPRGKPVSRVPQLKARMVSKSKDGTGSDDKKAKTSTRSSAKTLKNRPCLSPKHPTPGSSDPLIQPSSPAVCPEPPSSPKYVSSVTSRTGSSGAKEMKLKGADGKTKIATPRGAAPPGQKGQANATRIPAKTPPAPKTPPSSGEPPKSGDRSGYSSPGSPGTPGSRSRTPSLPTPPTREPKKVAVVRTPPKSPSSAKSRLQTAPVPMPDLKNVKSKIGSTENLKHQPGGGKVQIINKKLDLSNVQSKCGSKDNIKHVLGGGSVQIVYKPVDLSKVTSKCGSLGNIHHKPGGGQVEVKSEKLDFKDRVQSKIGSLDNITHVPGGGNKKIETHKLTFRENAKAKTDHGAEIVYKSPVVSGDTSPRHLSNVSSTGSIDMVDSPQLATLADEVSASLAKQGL
Chain of Sequestosome-1/Microtubule-associated protein tau (Q13501 2-440 limits assumed, stated change not applied): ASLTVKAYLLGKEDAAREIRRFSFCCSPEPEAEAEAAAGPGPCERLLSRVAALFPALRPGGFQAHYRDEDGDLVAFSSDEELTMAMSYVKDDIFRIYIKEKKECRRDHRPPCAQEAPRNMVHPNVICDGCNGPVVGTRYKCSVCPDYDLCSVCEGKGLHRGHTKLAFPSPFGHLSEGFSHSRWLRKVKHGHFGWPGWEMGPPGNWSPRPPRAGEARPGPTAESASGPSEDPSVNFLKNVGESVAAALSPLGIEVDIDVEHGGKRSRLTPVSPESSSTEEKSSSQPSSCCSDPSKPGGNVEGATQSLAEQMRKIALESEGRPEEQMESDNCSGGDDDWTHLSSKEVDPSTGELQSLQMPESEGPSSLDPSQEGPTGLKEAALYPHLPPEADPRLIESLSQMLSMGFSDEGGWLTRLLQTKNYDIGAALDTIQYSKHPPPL

DC50 [1]: 0.7 µM
DC50 [2]: 0.5 µM
Compound: COC1C(OC(=O)/C=C/C=C/C=C/C=C/C(=O)NCCOCCOCCNCc2cccc(OCc3ccccc3)c2)CCC2(CO2)C1C1(C)OC1CC=C(C)C (centres undefined)

Compound: Cc1ccccc1/N=N/c1ccc(/N=N/c2c(OCCCCCCCCCCN3C(=O)/C(=C\c4cc(Br)c(O)c(Br)c4)c4cc(I)ccc43)ccc3ccccc23)c(C)c1
ED [3]: 5 µM

Compound: O=c1cc(-c2ccccc2)c2c(O)cc(O)cc2o1
ED (Cortical neuron): 75 nM

DC50 [4]: 0.002 µM
DC50 [5]: < 0.1 µM
DC50 (Estrogen receptor beta [6]): < 0.1 µM
DC50 [7]: < 0.1 µM
DC50 (Estrogen receptor beta [8]): < 0.1 µM
DC50 (Estrogen receptor beta [9]): 0.002 µM
Compound: O[C@H](CNCCOCCOCCOc1ccc(-c2c(-c3ccccc3)nn3c(C(F)(F)F)cc(C(F)(F)F)nc23)cc1)COc1ccc(OCc2ccccc2)c(OCCCc2ccccc2)c1

DC50 (Androgen receptor): 0.2 µM
Compound: C=CC(C)(O)C(=O)N(C(=O)NCCOCCOCCNC[C@@H](O)COc1ccc(OCCc2ccccc2)c(OCCCc2ccccc2)c1)c1cc(Cl)cc(Cl)c1 (some centres undefined)

Activity [10]: 92%
Activity [11]: 99%
Compound: CC1=C(C)C2C(c3ccc(Cl)cc3)=N[C@@H](CC(=O)NCCCOCCOCCOCCCNC(=O)COc3c(Br)cc(/C=C4\C(=O)Nc5ccc(I)cc54)cc3Br)c3nnc(C)n3C2S1 (some centres undefined)

DC50 [12]: 0.001 µM
Compound: O=C(CCCc1ccccc1)NCCOCCOCCOCCNCc1ccc(OCc2ccccc2)c(OCc2ccccc2)c1

Compound: O=C1Nc2ccc(Br)cc2/C1=C/c1cc(O)c(O)c(Br)c1
ED (Cortical neuron): 50 nM

IC50 [13]: 0.0572 µM
Compound: H-GIYVIWGPITERKKRRKG-NH2

IC50 [14]: 0.04 µM
Activity [15]: 91%
Compound: Cc1ccc(C(=O)N(CCCNC(=O)CCCCCCCCN2CCN(S(=O)(=O)c3ccc(NC(=S)NCc4cccnc4)cc3)CC2)[C@@H](c2nc3cc(Cl)ccc3c(=O)n2Cc2ccccc2)C(C)C)cc1

Compound: Cc1ccccc1/N=N/c1ccc(/N=N/c2c(OCCCCCCCCCCOc3cc(O)cc4oc(=O)cc(-c5ccccc5)c34)ccc3ccccc23)c(C)c1
ED [3]: 5 µM
